The results in this text go back to patent US4609725A, “Cardiac atrial peptides” (Merck & Co., Inc., priority 1984, dated 1986).

Test [1] relates to serotonin contracted rat aortae. Type of test: cell-based. The text has this:
(§1) Under the conditions described above, conversion of non-iodinated ANF peptide fragment to the iodinated peptide was approximately 48%, based on the absorbance of the respective HPLC fractions and by amino acid analysis.

Test [2] relates to serotonin contracted rabbit aortae. Type of test: cell-based.
Description: as §1

For `CC[C@H](C)[C@@H]1NC(=O)[C@H](CCCNC(=N)N)NC(=O)[C@H](CC(=O)O)NC(=O)[C@H]([C@@H](C)CC)NC(=O)[C@H](CCCNC(=N)N)NC(=O)CNC(=O)CNC(=O)[C@H](Cc2ccccc2)NC(=O)[C@@H](NC(=O)[C@H](CO)NC(=O)[C@H](CO)NC(=O)[C@H](CCCNC(=N)N)NC(=O)[C@@H](N)CCCNC(=N)N)CSSC[C@@H](C(=O)N[C@@H](CC(N)=O)C(=O)N[C@@H](CO)C(=O)N[C@@H](Cc2ccccc2)C(=O)N[C@@H](CCCNC(=N)N)C(=O)N[C@@H](Cc2ccc(O)c(I)c2)C(=O)O)NC(=O)CNC(=O)[C@H](CC(C)C)NC(=O)CNC(=O)[C@H](CO)NC(=O)[C@H](CCC(N)=O)NC(=O)[C@H](C)NC(=O)CNC1=O` [iodinated ANF peptide fragment], the IC50 in test [1] was found to be 1.05 nM; in test [2] it was 1.65 nM. Further, the extent of vasorelaxation entry in test [1] (serotonin contracted rat aortae) and in test [2] (serotonin contracted rabbit aortae) was “complete vasorelaxation” in each case.

For orientation: IC50 means the midpoint of a concentration-inhibition curve. Read a low IC50 as higher potency.
